Usually IC50 stands for the midpoint of a concentration-inhibition curve.

Structures are written as SMILES.

Sequence of Recombinant kinase JAK3 (P52333 whole entry): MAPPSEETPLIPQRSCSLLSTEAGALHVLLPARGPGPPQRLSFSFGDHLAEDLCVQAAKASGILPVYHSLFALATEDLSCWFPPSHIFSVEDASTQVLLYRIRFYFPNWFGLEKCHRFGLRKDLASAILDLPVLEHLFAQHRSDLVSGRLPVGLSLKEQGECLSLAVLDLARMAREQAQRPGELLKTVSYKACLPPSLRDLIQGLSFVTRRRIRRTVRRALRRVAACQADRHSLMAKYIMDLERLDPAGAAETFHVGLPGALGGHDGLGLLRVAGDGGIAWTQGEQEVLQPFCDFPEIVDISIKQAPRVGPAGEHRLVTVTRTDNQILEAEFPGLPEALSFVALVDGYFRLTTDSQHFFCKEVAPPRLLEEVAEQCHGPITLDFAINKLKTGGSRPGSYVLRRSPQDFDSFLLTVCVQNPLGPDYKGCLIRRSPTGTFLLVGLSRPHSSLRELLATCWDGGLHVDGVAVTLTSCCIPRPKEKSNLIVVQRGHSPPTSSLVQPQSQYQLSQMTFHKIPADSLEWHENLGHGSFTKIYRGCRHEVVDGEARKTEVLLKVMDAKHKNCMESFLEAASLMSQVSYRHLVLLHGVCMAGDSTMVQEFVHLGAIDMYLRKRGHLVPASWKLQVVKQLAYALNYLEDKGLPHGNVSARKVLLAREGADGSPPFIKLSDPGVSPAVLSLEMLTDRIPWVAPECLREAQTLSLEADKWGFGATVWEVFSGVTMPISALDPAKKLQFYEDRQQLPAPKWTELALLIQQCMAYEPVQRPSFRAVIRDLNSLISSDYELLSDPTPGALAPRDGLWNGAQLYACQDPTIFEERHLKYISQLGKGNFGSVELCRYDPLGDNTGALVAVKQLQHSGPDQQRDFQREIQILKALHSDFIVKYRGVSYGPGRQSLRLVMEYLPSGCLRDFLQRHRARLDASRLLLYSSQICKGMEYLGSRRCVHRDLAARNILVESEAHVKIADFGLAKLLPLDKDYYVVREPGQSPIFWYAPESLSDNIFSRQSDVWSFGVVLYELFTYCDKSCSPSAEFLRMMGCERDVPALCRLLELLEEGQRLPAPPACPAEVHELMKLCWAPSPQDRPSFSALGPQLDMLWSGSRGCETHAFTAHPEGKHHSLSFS

The assay addresses Recombinant kinase JAK3 (Homo sapiens (Human), UniProt P52333). As to the kind of experiment: In vitro JAK kinase inhibition assay (ADP-Glo), JAK3. The assay is classed as biochemical. The settings on record: 30 μM ATP, peptide IGF-1Rtide, averaged. How it is done: In Vitro JAK Kinase Inhibition Assay
The effects of the compounds of the invention were analysed in vitro using kinase JAK inhibition assay described below.
Tested compounds were dissolved in 100% DMSO, and obtained stock solutions were serially diluted in the reaction buffer (50 mM Tris pH 7.5, 10 mM MgCl2, 0.25 mM EGTA, 0.1 mM Na3VO4, 0.01% Triton X-100, 2.5 mM DTT). Recombinant kinases JAK1 (ProQinase), JAK2, or JAK3 (Carna Biosciences) were diluted in the dilution buffer (50 mM Tris-HCl pH 7.5, 150 mM NaCl, 10% glycerol, 0.05% Triton X-100, 1 mM DTT) to the final concentration 3 ng/μL (JAK1), 0.1 ng/μL (JAK2), or 0.2 ng/μL (JAK3). 5 μL of obtained solution of the compounds and 5 μL of the solution of respective kinases were added to the well of a 96-well plate. To initiate interaction between tested compounds and an enzyme, the plate was incubated for 10 minutes at 25° C. in a Plate-Thermo-Shaker with orbital stirring at 400 rpm. Wells of a negative control contained all reagents as mentioned above with the exception of tested compounds and kinase, and wells of a positive controls contained all reagents as mentioned above with the exception of tested compounds. Enzymatic reaction was initiated by the addition of 15 μL of the following solution: 5× concentrated reaction buffer (50 mM Tris pH 7.5, 10 mM MgCl2, 0.25 mM EGTA, 0.1 mM Na3VO4, 0.01% Triton X-100, 2.5 mM DTT), water, 30 μM ATP and for particular kinases: JAK1—60 μM peptide IRS-1 (Enzo), JAK2 or JAK3—10 μM peptide IGF-1Rtide (Lipopharm). Then the plate was incubated for 1 hour at 25° C. in a Plate-Thermo-Shaker, with orbital stirring at 400 rpm. Detection of ADP formed in the enzymatic reaction was then performed using ADP-Glo Kinase Assay kit (Promega). For this purpose, to the well of the 96-well plate 25 μL of ADP-Glo Reagent were added, and the plate was incubated for 40 minutes at 25° C. in a Plate-Thermo-Shaker with orbital stirring at 400 rpm. Then to the well of the 96-well plate 50 μL of Kinase Detection Reagent were added and the plate was incubated for 30 minutes at 25° C. in a Plate-Thermo-Shaker with orbital stirring at 400 rpm. After incubation, luminescence intensity was measured using Victor×Light luminometer (Perkin Elmer, Inc.).
On the basis of luminescence measurement in wells containing tested compounds at various concentrations and in control wells, IC50 values were determined. These values were determined with Graph Pad software v. 5.03, by fitting points of the curve using non-linear regression method. Each compound was tested in at least 6 repetitions (6 wells) on two 96-well plates, using at least 3 wells of each control.
Averaged results of kinases JAK inhibition activity for selected compounds of the present invention are presented below in Table 1.
(ADP-Glo turns the ADP formed in a reaction into a luminescent signal.)
`COc1ccc(-c2cc3ncc(C(N)=O)c(N[C@@H]4CCN(c5ccc(C#N)nn5)CC4(C)C)n3n2)cn1` [Example 4, (R)-7-((1-(6-Cyanopyridazin-3-yl)-3,3-dimethylpiperidin-4-yl)amino)-2-(6-methoxy-pyridin-3-yl)pyrazolo[1,5-a]pyrimidine-6-carboxamide]: the 50% inhibitory concentration (IC50) was determined as 2.67 nM.

For `CC1(C)CN(c2ccc(C#N)nn2)CC[C@H]1Nc1c(C(N)=O)cnc2cc(-c3ccc(N4CCOCC4)nc3)nn12` [Example 7, (R)-7-((1-(6-Cyanopyridazin-3-yl)-3,3-dimethylpiperidin-4-yl)amino)-2-(6-morpholinopyridin-3-yl)pyrazolo[1,5-a]pyrimidine-6-carboxamide], the IC50 was determined as 0.19 nM.

Turning to `COc1cccc(-c2cc3ncc(C(N)=O)c(N[C@@H]4CCN(c5ccc(C#N)nn5)CC4(C)C)n3n2)n1` [Example 11, (R)-7-((1-(6-Cyanopyridazin-3-yl)-3,3-dimethylpiperidin-4-yl)amino)-2-(6-methoxy-pyridin-2-yl)pyrazolo[1,5-a]pyrimidine-6-carboxamide], the concentration for half-maximal inhibition (IC50) worked out at 0.03 nM.

Regarding `Cc1cc(-c2cc3ncc(C(N)=O)c(N[C@@H]4CCN(c5ccc(C#N)nn5)CC4(C)C)n3n2)ccn1` [Example 12, (R)-7-((1-(6-Cyanopyridazin-3-yl)-3,3-dimethylpiperidin-4-yl)amino)-2-(2-methyl-pyridin-4-yl)pyrazolo[1,5-a]pyrimidine-6-carboxamide], the IC50 is 0.29 nM.

The values above are taken from patent US11072619B2, “Pyrazole[1,5-a] pyrimidine derivatives as kinase JAK inhibitors” (CELON PHARMA S.A., priority 2017, dated 2021).
